The values below come from PubChem BioAssay AID1963977 (Molecular Pharmacology Branch, DTP, NCI, 2024).

By IC50 is commonly meant the concentration that gives 50% inhibition. As usually defined, the viability, T/C is the result in the treated group divided by that in the control group, in per cent.

This test concerns 624824-186-R-J3-PDC multicell spheroids, viability. In words: Anticancer human tumor 624824-186-R-J3-PDC patient-derived colon adenocarcinoma cell line growth inhibition [PI3K]. Particulars: for viability, T/C: stronger effect = lower value. The method in brief: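 Three cell types, namely tumor cells, endothelial cells and mesenchymal stem cells, formed each spheroid. Combinations with four PI3K inhibitors were screened at clinically achievable concentrations decreasing by half-log, and spheroid viability was recorded.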

[1] abbreviates: curve of first compound, second compound 0.0316 µM.
[2] abbreviates: curve of first compound, second compound 0.1 µM.
[3] abbreviates: curve of first compound, second compound 0.316 µM.
Where [4] appears, read: curve of first compound, second compound 1 µM.
Setting [5] is: curve of first compound, second compound 3.16 µM.
[6] abbreviates: curve of first compound, second compound 10 µM.
Where [7] appears, read: second compound 0.0316 µM, first compound 0.0316 µM.
The mark [8] stands for this setting: second compound 0.0316 µM, first compound 0.1 µM.
Where [9] appears, read: second compound 0.0316 µM, first compound 0.316 µM.
Setting [10] is: second compound 0.0316 µM, first compound 1 µM.
The mark [11] stands for this setting: second compound 0.0316 µM, first compound 3.16 µM.
[12] abbreviates: second compound 0.0316 µM, first compound 10 µM.
Where [13] appears, read: second compound 0.1 µM, first compound 0.0316 µM.
[14] abbreviates: second compound 0.1 µM, first compound 0.1 µM.
Setting [15] is: second compound 0.1 µM, first compound 0.316 µM.
Setting [16] is: second compound 0.1 µM, first compound 1 µM.
Where [17] appears, read: second compound 0.1 µM, first compound 3.16 µM.
Setting [18] is: second compound 0.1 µM, first compound 10 µM.
Where [19] appears, read: second compound 0.316 µM, first compound 0.0316 µM.
Setting [20] is: second compound 0.316 µM, first compound 0.1 µM.
Where [21] appears, read: second compound 0.316 µM, first compound 0.316 µM.
[22] abbreviates: second compound 0.316 µM, first compound 1 µM.
[23] abbreviates: second compound 0.316 µM, first compound 3.16 µM.
Setting [24] is: second compound 0.316 µM, first compound 10 µM.
[25] abbreviates: second compound 1 µM, first compound 0.0316 µM.
Where [26] appears, read: second compound 1 µM, first compound 0.1 µM.
Setting [27] is: second compound 1 µM, first compound 0.316 µM.
Where [28] appears, read: second compound 1 µM, first compound 1 µM.
Setting [29] is: second compound 1 µM, first compound 3.16 µM.
[30] abbreviates: second compound 1 µM, first compound 10 µM.
The mark [31] stands for this setting: second compound 3.16 µM, first compound 0.0316 µM.
[32] abbreviates: second compound 3.16 µM, first compound 0.1 µM.
The mark [33] stands for this setting: second compound 3.16 µM, first compound 0.316 µM.
[34] abbreviates: second compound 3.16 µM, first compound 1 µM.
The mark [35] stands for this setting: second compound 3.16 µM, first compound 3.16 µM.
The mark [36] stands for this setting: second compound 3.16 µM, first compound 10 µM.
Where [37] appears, read: second compound 10 µM, first compound 0.0316 µM.
Setting [38] is: second compound 10 µM, first compound 0.1 µM.
The mark [39] stands for this setting: second compound 10 µM, first compound 0.316 µM.
The mark [40] stands for this setting: second compound 10 µM, first compound 1 µM.
[41] abbreviates: second compound 10 µM, first compound 3.16 µM.
[42] abbreviates: second compound 10 µM, first compound 10 µM.

Where “and” joins values, the source holds several entries; their conditions need not be identical. Equal values may be shown once. Where only a bound is given, the exact number is not on record here.
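Further: spheroids exposed to agents for seven days before luminescence read.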
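Wherever viability, T/C is given: luminescent signal used as a stand-in for spheroid viability; percent viability relative to DMSO vehicle control wells taken as 100%.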

`Cn1ncc(Cl)c1-c1cc(C(=O)NC(CN)Cc2cccc(F)c2)sc1Cl` (centres undefined) + CC(Nc1ncnc2nc[nH]c12)c1cc2cccc(Cl)c2c(=O)n1-c1ccccc1: the IC50 is over 10 µM under setting [1]; 8.15 µM under setting [2]; 5.63 µM under setting [3]; 5.17 µM under setting [4]; 4.18 µM under setting [5]; 2.26 µM under setting [6]. The viability, T/C was 95.7% under setting [7]; 109% under setting [8]; 103% under setting [9]; 69.4% under setting [10]; 62.4% under setting [11]; 47.8% under setting [12]. In addition, the viability, T/C runs as follows: under setting [13], 115%; under setting [14], 101%; under setting [15], 96.1%; under setting [16], 83.5%; under setting [17], 64.5%; under setting [18], 46.5%. In addition, the viability, T/C is, setting by setting: under setting [19], 103%; under setting [20], 101%; under setting [21], 90.7%; under setting [22], 75.4%; under setting [23], 59.9%; under setting [24], 41%. In addition, the viability, T/C by setting is: under setting [25], 107%; under setting [26], 102%; under setting [27], 91.9%; under setting [28], 78.6%; under setting [29], 61.5%; under setting [30], 35.2%. In addition, the viability, T/C under setting [31] was 96.8%; the viability, T/C under setting [32] is 94%; the viability, T/C under setting [33] is 86.3%; the viability, T/C under setting [34] is 64.4%; the viability, T/C under setting [35] was 57.6%; the viability, T/C under setting [36] was 37.5%. For the same compound, the viability, T/C reads like this: under setting [37], 94.3%; under setting [38], 89.6%; under setting [39], 73.5%; under setting [40], 60.5%; under setting [41], 45.7%; under setting [42], 38.5%.

Regarding `CC(Cn1ccc(-c2ccc(C#N)c(Cl)c2)n1)NC(=O)c1cc(C(C)O)[nH]n1` (centres undefined), the viability, T/C is, setting by setting: (compound 0.0316 µM) 96.5% [middle of 4 runs]; (compound 0.1 µM) 97.2% [middle of 4 runs]; (compound 0.316 µM) 105% [middle of 4 runs]; (compound 1 µM) 95.5% [middle of 4 runs]; (compound 3.16 µM) 99.4% [middle of 4 runs]; (compound 10 µM) 104% [middle of 4 runs]. Also, the IC50 (curve of compound) is over 10 µM.

Consider `Cc1nc(NC(=O)N2CCCC2C(N)=O)sc1-c1ccnc(C(C)(C)C(F)(F)F)c1` (centres undefined), for which the viability, T/C runs as follows: (compound 0.0316 µM) 102% [middle of 8 runs]; (compound 0.1 µM) 108% [middle of 8 runs]; (compound 0.316 µM) 109% [middle of 8 runs]; (compound 1 µM) 107% [middle of 8 runs]; (compound 3.16 µM) 94% [middle of 8 runs]; (compound 10 µM) 72.8% [middle of 8 runs]. For the same compound, under “compound alone, run of 04/24/2023”, the IC50 is over 10 µM.

As to `Cn1ncnc1[C@H]1c2n[nH]c(=O)c3cc(F)cc(c23)N[C@@H]1c1ccc(F)cc1`, the viability, T/C runs as follows: (compound 0.000316 µM) 110% [middle of 4 runs]; (compound 0.001 µM) 100% [middle of 4 runs]; (compound 0.01 µM) 99.7% [middle of 4 runs]; (compound 0.0316 µM) 103% (2×) and 93.2% and 95.4%; (compound 0.1 µM) 98.4% [middle of 4 runs]. In addition, where the note is “curve of compound”, the IC50 was over 0.1 µM.

Consider `CCCS(=O)(=O)Nc1ccc(F)c(C(=O)c2c[nH]c3ncc(-c4ccc(Cl)cc4)cc23)c1F` + CC(Nc1ncnc2nc[nH]c12)c1cc2cccc(Cl)c2c(=O)n1-c1ccccc1, for which the IC50 under setting [1] stood at 4.91 µM; the concentration for half-maximal inhibition (IC50) under setting [2] was 4.92 µM; the half-inhibitory concentration (IC50) under setting [3] was 5.07 µM; the IC50 under setting [4] was determined as 4.8 µM; the IC50 under setting [5] amounted to 4.68 µM; the IC50 under setting [6] was 2.45 µM. For the same compound, the viability, T/C runs as follows: under setting [7], 102%; under setting [8], 101%; under setting [9], 89.4%; under setting [10], 98%; under setting [11], 76%; under setting [12], 7.94%. The viability, T/C under setting [13] was 102%; the viability, T/C under setting [14] is 104%; the viability, T/C under setting [15] is 94.1%; the viability, T/C under setting [16] was 90.5%; the viability, T/C under setting [17] was 78.9%; the viability, T/C under setting [18] is 6.92%. For the same compound, the viability, T/C under setting [19] is 102%; the viability, T/C under setting [20] is 95.2%; the viability, T/C under setting [21] is 108%; the viability, T/C under setting [22] was 91.7%; the viability, T/C under setting [23] was 80.4%; the viability, T/C under setting [24] is 7.81%. Also, the viability, T/C reads like this: under setting [25], 99.9%; under setting [26], 103%; under setting [27], 91.5%; under setting [28], 84%; under setting [29], 78.2%; under setting [30], 7.61%. Besides, the viability, T/C is 100% under setting [31]; 90.5% under setting [32]; 97.1% under setting [33]; 81% under setting [34]; 74.2% under setting [35]; 9.32% under setting [36]. The viability, T/C under setting [37] was 97.4%; the viability, T/C under setting [38] is 74.6%; the viability, T/C under setting [39] was 73.7%; the viability, T/C under setting [40] is 60.5%; the viability, T/C under setting [41] is 56%; the viability, T/C under setting [42] was 11.7%.
